We go through 9 compounds from patent US20240270762A1, “PENICILLIN-BINDING PROTEIN INHIBITORS” (priority 2021, published 2024).

Converted amounts (≈) assume the structure as drawn. Like-named read-outs stand apart in the source and are kept apart here. Bounds are passed on as bounds.

In assay [1] the target is T1, PBP1a from Acinetobacter baumannii (ATCC 19606) (Acinetobacter baumannii, UniProt A0ABX6CK30).
T1 sequence (A0ABX6CK30 1-851): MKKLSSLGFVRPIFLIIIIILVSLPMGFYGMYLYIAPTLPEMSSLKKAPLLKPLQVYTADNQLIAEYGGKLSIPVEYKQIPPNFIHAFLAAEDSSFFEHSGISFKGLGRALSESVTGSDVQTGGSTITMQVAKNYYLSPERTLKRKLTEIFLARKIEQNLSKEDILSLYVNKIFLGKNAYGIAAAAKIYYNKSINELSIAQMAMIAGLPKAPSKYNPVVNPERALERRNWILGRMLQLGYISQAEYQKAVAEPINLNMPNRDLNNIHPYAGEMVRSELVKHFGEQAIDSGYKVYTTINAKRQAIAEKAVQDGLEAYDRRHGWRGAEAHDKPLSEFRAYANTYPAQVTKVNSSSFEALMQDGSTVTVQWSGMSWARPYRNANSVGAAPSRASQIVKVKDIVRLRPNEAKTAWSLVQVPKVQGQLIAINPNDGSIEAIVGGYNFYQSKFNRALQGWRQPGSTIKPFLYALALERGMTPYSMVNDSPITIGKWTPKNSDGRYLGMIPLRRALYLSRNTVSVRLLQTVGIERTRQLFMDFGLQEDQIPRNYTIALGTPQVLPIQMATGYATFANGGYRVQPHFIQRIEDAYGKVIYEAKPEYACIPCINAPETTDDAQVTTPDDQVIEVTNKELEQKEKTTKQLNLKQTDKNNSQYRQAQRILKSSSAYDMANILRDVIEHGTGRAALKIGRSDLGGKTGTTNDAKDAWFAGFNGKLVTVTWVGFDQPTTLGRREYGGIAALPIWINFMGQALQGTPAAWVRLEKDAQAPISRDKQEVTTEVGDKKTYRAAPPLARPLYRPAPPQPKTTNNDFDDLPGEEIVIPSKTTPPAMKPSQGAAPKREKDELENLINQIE
The assay is described as follows: Bocillin-FL fluorescence polarization competition binding, A. baumannii PBP1a. To be noted: fluorescence polarization competition binding assay using Bocillin-FL; read-out: A. baumannii PBP1a Potency. An outline of the steps: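 Purified PBP was preincubated with inhibitor (E. coli PBP3 1.5 μM, 30 min; P. aeruginosa PBP3 0.75 μM, A. baumannii PBP3 0.2 μM and PBP1a 1 μM, 15 min), then Bocillin-FL (0.1 μM; 0.05 μM for PBP1a) added and FP read up to 60 min. EC50 = 50% loss of bound probe.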
In general terms: Polarisation of emitted light reports the rotation of a fluorescent probe.

The test system of assay [2] is A. baumannii ATCC 19606. Kind of assay: microbe, parasite or virus in culture. To be noted: Acinetobacter baumannii, ATCC19606, read-out: MIC, A. baumannii ATCC 19606. The assay is classed as cell-based.
Assay [3] deals with A. baumannii 1258916. Kind of assay: microbe, parasite or virus in culture. In kind it is cell-based, Acinetobacter baumannii. Conditions: Acinetobacter baumannii, 1258916, read-out: MIC, A. baumannii 1258916.
In assay [4] the test system is A. baumannii CDC-0033. The assay is described as follows: microbe, parasite or virus in culture. The assay is classed as cell-based. Conditions: Acinetobacter baumannii, CDC0033, read-out: MIC, A. baumannii CDC-0033.
Assay [5] concerns A. baumannii CDC-0083. The assay is described as follows: microbe, parasite or virus in culture. The assay is classed as cell-based. Conditions: Acinetobacter baumannii, CDC0083, read-out: MIC, A. baumannii CDC-0083.
Assay [6] has as its system N. gonorrhoeae WHO M. Kind of assay: Liquid broth MIC in Fastidious broth. To be noted: Neisseria gonorrhoeae.
Assay [7] deals with N. gonorrhoeae WHO X. The assay is described as follows: Liquid broth MIC in Fastidious broth. Conditions: Neisseria gonorrhoeae.
In assay [8] the test system is N. gonorrhoeae CDC-0197. Kind of assay: Liquid broth MIC in Fastidious broth. To be noted: Neisseria gonorrhoeae.
[9] abbreviates: read-out: Minimum Inhibitory Concentration (MIC), N. gonorrhoeae WHO M.
Setting [10] is: read-out: Minimum Inhibitory Concentration (MIC), N. gonorrhoeae WHO X.
The mark [11] stands for this setting: CDC0197, read-out: Minimum Inhibitory Concentration (MIC), N. gonorrhoeae CDC-0197.
Where [12] appears, read: read-out: Minimum Inhibitory Concentration, WHO M.
Setting [13] is: read-out: Minimum Inhibitory Concentration, WHO X.
[14] abbreviates: CDC0197, read-out: Minimum Inhibitory Concentration, CDC-0197.

With `O=C(NCCN1CCN(C(=O)NC(C(=O)N[C@H]2Cc3ccc(F)c(C(=O)O)c3OB2O)c2cc(F)c(O)c(O)c2Cl)C(=O)C1=O)c1ccc(O)cc1` (stereo partly drawn) [Example 214, (3R)-3-(2-(2-chloro-5-fluoro-3,4-dihydroxyphenyl)-2-(4-(2-(4-hydroxybenzamido)ethyl)-2,3-dioxopiperazine-1-carboxamido)acetamido)-7-fluoro-2-hydroxy-3,4-dihydro-2H-benzo[e][1,2]oxaborinine-8-carboxylic acid], the IC50 in assay [1] is above 250 µM. Moreover, the MIC in assay [2] is below 1 µg/mL; in assay [3], 2 to 4 µg/mL (≈ 2.68 to 5.36 µM); in assay [4], 8 to 16 µg/mL (≈ 10.7 to 21.5 µM); in assay [5], above 128 µg/mL; in assay [6] (setting [9]), 4 to 8 µg/mL (≈ 5.36 to 10.7 µM); in assay [7] (setting [10]), above 64 µg/mL. For the same compound, the MIC in assay [8] (setting [11]) was in the range of 16 to 32 µg/mL (≈ 21.5 to 42.9 µM).

In the case of `CN(CCN1CCN(C(=O)N[C@@H](C(=O)N[C@H]2Cc3ccc(F)c(C(=O)O)c3OB2O)c2cc(F)c(O)c(O)c2Cl)C(=O)C1=O)Cc1nccs1` [Example 200, (R)-3-((R)-2-(2-chloro-5-fluoro-3,4-dihydroxyphenyl)-2-(4-(2-(methyl(thiazol-2-ylmethyl)amino)ethyl)-2,3-dioxopiperazine-1-carboxamido)acetamido)-7-fluoro-2-hydroxy-3,4-dihydro-2H-benzo[e][1,2]oxaborinine-8-carboxylic acid], the IC50 in assay [1] was above 250 µM. The MIC in assay [2] was below 1 µg/mL; in assay [3] it was below 1 µg/mL; in assay [4], 2 to 4 µg/mL (≈ 2.71 to 5.43 µM); in assay [5], below 1 µg/mL; in assay [6] (setting [9]) it was 4 to 8 µg/mL (≈ 5.43 to 10.9 µM); in assay [7] (setting [10]) it was above 64 µg/mL. Further, the MIC in assay [8] (setting [11]) was above 64 µg/mL.

For the compound `O=C(O)c1c(F)ccc2c1OB(O)[C@@H](NC(=O)C(NC(=O)N1CCN(CCNC(=O)[C@@H]3CCCN3)C1=O)c1cc(F)c(O)c(O)c1Cl)C2` (stereo partly drawn) [Example 248, (3R)-3-(2-(2-chloro-5-fluoro-3,4-dihydroxyphenyl)-2-(2-oxo-3-(2-((S)-pyrrolidine-2-carboxamido)ethyl)imidazolidine-1-carboxamido)acetamido)-7-fluoro-2-hydroxy-3,4-dihydro-2H-benzo[e][1,2]oxaborinine-8-carboxylic acid], the IC50 in assay [1] is above 250 µM. Besides, the MIC in assay [2] was below 1 µg/mL; in assay [3], below 1 µg/mL; in assay [4], 2 to 4 µg/mL (≈ 2.88 to 5.76 µM); in assay [5], below 1 µg/mL; in assay [6] (setting [12]), 4 to 8 µg/mL (≈ 5.76 to 11.5 µM); in assay [7] (setting [13]) it was above 64 µg/mL. For the same compound, in assay [8] (setting [14]), the MIC was 16 to 32 µg/mL (≈ 23 to 46.1 µM).

Take `O=C(NCCCS(=O)(=O)N1CCN(C(=O)NC(C(=O)N[C@H]2Cc3ccc(F)c(C(=O)O)c3OB2O)c2cc(F)c(O)c(O)c2Cl)C1=O)c1ccc(O)cc1` (stereo partly drawn) [Example 269, (3R)-3-(2-(2-chloro-5-fluoro-3,4-dihydroxyphenyl)-2-(3-((3-(4-hydroxybenzamido)propyl)sulfonyl)-2-oxoimidazolidine-1-carboxamido)acetamido)-7-fluoro-2-hydroxy-3,4-dihydro-2H-benzo[e][1,2]oxaborinine-8-carboxylic acid]: the IC50 in assay [1] is above 250 µM. Also, the MIC is below 1 µg/mL in assay [2]; 2 to 4 µg/mL (≈ 2.51 to 5.03 µM) in assay [3]; 8 to 16 µg/mL (≈ 10.1 to 20.1 µM) in assay [4]; 32 to 64 µg/mL (≈ 40.2 to 80.4 µM) in assay [5]; 4 to 8 µg/mL (≈ 5.03 to 10.1 µM) in assay [6] (setting [12]); above 64 µg/mL in assay [7] (setting [13]). For the same compound, the MIC in assay [8] (setting [14]) was in the range of 16 to 32 µg/mL (≈ 20.1 to 40.2 µM).

`O=C(O)c1c(F)ccc2c1OB(O)[C@@H](NC(=O)[C@H](NC(=O)N1CCN(CCNC(=O)[C@@H]3CCCN3)C(=O)C1=O)c1cc(F)c(O)c(O)c1Cl)C2` [Example 229, (R)-3-((R)-2-(2-chloro-5-fluoro-3,4-dihydroxyphenyl)-2-(2,3-dioxo-4-(2-((S)-pyrrolidine-2-carboxamido)ethyl)piperazine-1-carboxamido)acetamido)-7-fluoro-2-hydroxy-3,4-dihydro-2H-benzo[e][1,2]oxaborinine-8-carboxylic acid]: the IC50 in assay [1] was above 250 µM. In addition, the MIC is below 1 µg/mL in assay [2]; 2 to 4 µg/mL (≈ 2.77 to 5.53 µM) in assay [3]; 8 to 16 µg/mL (≈ 11.1 to 22.1 µM) in assay [4]; below 1 µg/mL in assay [5]; 4 to 8 µg/mL (≈ 5.53 to 11.1 µM) in assay [6] (setting [9]); above 64 µg/mL in assay [7] (setting [10]). In addition, the MIC in assay [8] (setting [11]) lay within 16 to 32 µg/mL (≈ 22.1 to 44.3 µM).

Take `O=C(NCCN1CCN(C(=O)NC(C(=O)N[C@H]2Cc3ccc(F)c(C(=O)O)c3OB2O)c2cc(F)c(O)c(O)c2Cl)C(=O)C1=O)Nc1cccc(O)c1` (stereo partly drawn) [Example 220, (3R)-3-(2-(2-chloro-5-fluoro-3,4-dihydroxyphenyl)-2-(4-(2-(3-(3-hydroxyphenyl)ureido)ethyl)-2,3-dioxopiperazine-1-carboxamido)acetamido)-7-fluoro-2-hydroxy-3,4-dihydro-2H-benzo[e][1,2]oxaborinine-8-carboxylic acid]: in assay [1], the IC50 is above 250 µM. Besides, the MIC in assay [2] is below 1 µg/mL; in assay [3] it was 2 to 4 µg/mL (≈ 2.63 to 5.26 µM); in assay [4], 2 to 4 µg/mL (≈ 2.63 to 5.26 µM); in assay [5], 8 to 16 µg/mL (≈ 10.5 to 21 µM); in assay [6] (setting [9]), 4 to 8 µg/mL (≈ 5.26 to 10.5 µM); in assay [7] (setting [10]) it was above 64 µg/mL. Further, the MIC in assay [8] (setting [11]) is above 64 µg/mL.

Turning to `O=C(NCCN1CCN(C(=O)NC(C(=O)N[C@H]2Cc3ccc(F)c(C(=O)O)c3OB2O)c2cc(F)c(O)c(O)c2Cl)C1=O)c1cccc(O)c1` (stereo partly drawn) [Example 244, (3R)-3-(2-(2-chloro-5-fluoro-3,4-dihydroxyphenyl)-2-(3-(2-(3-hydroxybenzamido)ethyl)-2-oxoimidazolidine-1-carboxamido)acetamido)-7-fluoro-2-hydroxy-3,4-dihydro-2H-benzo[e][1,2]oxaborinine-8-carboxylic acid], the IC50 in assay [1] is above 250 µM. For the same compound, the MIC in assay [2] was below 1 µg/mL; in assay [3] it was below 1 µg/mL; in assay [4], 2 to 4 µg/mL (≈ 2.79 to 5.57 µM); in assay [5] it was below 1 µg/mL; in assay [6] (setting [9]), 16 to 32 µg/mL (≈ 22.3 to 44.6 µM); in assay [7] (setting [10]), above 64 µg/mL. The MIC in assay [8] (setting [11]) was above 64 µg/mL.

For `O=C(NCCCN1CCN(C(=O)N[C@@H](C(=O)N[C@H]2Cc3ccc(F)c(C(=O)O)c3OB2O)c2cc(F)c(O)c(O)c2Cl)C(=O)C1=O)c1cccnc1` [Example 210, (R)-3-((R)-2-(2-chloro-5-fluoro-3,4-dihydroxyphenyl)-2-(4-(3-(nicotinamido)propyl)-2,3-dioxopiperazine-1-carboxamido)acetamido)-7-fluoro-2-hydroxy-3,4-dihydro-2H-benzo[e][1,2]oxaborinine-8-carboxylic acid], the IC50 in assay [1] is above 250 µM. In addition, the MIC in assay [2] was below 1 µg/mL; in assay [3], below 1 µg/mL; in assay [4], 8 to 16 µg/mL (≈ 10.7 to 21.5 µM); in assay [5] it was 2 to 4 µg/mL (≈ 2.69 to 5.37 µM); in assay [6] (setting [9]), 16 to 32 µg/mL (≈ 21.5 to 43 µM); in assay [7] (setting [10]), above 64 µg/mL. Further, the MIC in assay [8] (setting [11]) was above 64 µg/mL.

For `O=C(NCCS(=O)(=O)N1CCN(C(=O)NC(C(=O)N[C@H]2Cc3ccc(F)c(C(=O)O)c3OB2O)c2cc(F)c(O)c(O)c2Cl)C1=O)c1cccnc1` (stereo partly drawn) [Example 262, (3R)-3-(2-(2-chloro-5-fluoro-3,4-dihydroxyphenyl)-2-(3-((2-(nicotinamido)ethyl)sulfonyl)-2-oxoimidazolidine-1-carboxamido)acetamido)-7-fluoro-2-hydroxy-3,4-dihydro-2H-benzo[e][1,2]oxaborinine-8-carboxylic acid], the IC50 in assay [1] was above 250 µM. Also, the MIC in assay [2] was below 1 µg/mL; in assay [3], below 1 µg/mL; in assay [4], 2 to 4 µg/mL (≈ 2.61 to 5.22 µM); in assay [5], below 1 µg/mL; in assay [6] (setting [12]), 16 to 32 µg/mL (≈ 20.9 to 41.7 µM); in assay [7] (setting [13]), above 64 µg/mL. Moreover, in assay [8] (setting [14]), the MIC is 16 to 32 µg/mL (≈ 20.9 to 41.7 µM).
